Assay results as given in patent US9408853B2, “Iridium/rhodium anti-cancer compounds” (University of Warwick, priority 2010, dated 2016).

Assay: Kinetics of hydrolysis followed by 1H NMR
Type: physicochemical
Settings: for k (hydrolysis): 0.2 mM, 5% MeOD-d4/95% D2O, pH* 3
Description: Kinetics for Hydrolysis. Although complexes ZL01-ZL04, ZL07, ZL38 and ZL43 hydrolyzed too rapidly to monitor by ^1H NMR, The kinetics of hydrolysis for complexes ZL25, ZL33, ZL37 and ZL54 were followed by ^1H NMR at different temperatures. For this, solutions of the complexes with a final concentration of 0.2 mM in 5% MeOD-d4/95% D2O (v/v) were prepared by dissolution of the complexes in MeOD-d4 followed by rapid dilution using D2O with a pH* of about 3 (acidified with HClO4), so that the aqua ligand was not deprotonated. ^1H NMR spectra were taken after various time intervals. The rates of hydrolysis were determined by fitting plots of concentrations (determined from ^1H NMR peak integrals) versus time to a pseudo first-order equation using ORIGIN version 7.0. The Arrhenius activation energy (Ea), activation enthalpies (ΔH^¢), and activation entropy (ΔS^‡) for compounds ZL25, ZL33, ZL37 and ZL54 were determined from the slopes of the Arrhenius and intercepts of Eyring plots.
The rates of hydrolysis of compounds ZL01-ZL04, ZL07, ZL25, ZL33, ZL37, ZL38, ZL43 and ZL54 in a 5% MeOD-d4/95% D2O were monitored by ^1H NMR at different temperature from 278 to 298 K by the observation of new peaks over time due to aqua adduct formation. Five percent MeOD was used to improve solubility, and acidic conditions (D2O, pH* 3) were used to prevent the deprotonation of the aqua complex as a secondary reaction. […] The percentage of aqua peak formation for ZL25, ZL33, ZL37 and ZL54 was plotted against time and was fitted to pseudofirst order kinetics (FIG. 3), and their halflife times were calculated (Table 1). The Arrhenius activation energy (Ea), activation enthalpy (ΔH^¢), and activation entropy (ΔS^‡) of compound ZL25, ZL33, ZL37 and ZL54 are listed in Table 4. The large negative ΔS^‡value for compound ZL54 is notable. The extent of hydrolysis at equilibrium is medium for all compounds, ranged from 30% to 60%.

In the case of Cc1c(C)c(-c2ccccc2)[c-](C)c1C.F[P-](F)(F)(F)(F)F.[Cl-].[Ir+3].c1cnc2c(c1)ccc1cccnc12 (stereo not drawn) [ZL33, [(η^5-C5Me4C6H5)Ir(phen)Cl]PF6], the “k (hydrolysis)” value (278 K) is reported as 0.033 min⁻¹, the “k (hydrolysis)” value (283 K) is reported as 0.0693 min⁻¹ and the “k (hydrolysis)” value (288 K) is reported as 0.1264 min⁻¹. The “Ea (Arrhenius activation energy of hydrolysis)” value (from Arrhenius plot) was 20.5 kcal/mol, the “ΔH^‡ (activation enthalpy of hydrolysis)” value (from Eyring plot) was 20.06 kcal/mol and the “ΔS^‡ (activation entropy of hydrolysis)” value (from Eyring plot) was 29.3 J K^−1mol^−1.
